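96-well plates; 48 h exposure; 5 concentrations. Endpoints by linear interpolation between flanking doses. Not reached: highest tested concentration assigned. GI50 is the concentration that inhibits growth by half.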 The source made the active and inactive calls. Cut-off read from the data, not from the text of the source: active = GI50 up to about 1.1 µM and inactive = higher.
Key:
Assay in all cases: DTP human tumour cell line panel, 48 h
NCI-H226 = system: NCI-H226
K562 = system: K562
SR = system: SR
HCT-15 = system: HCT-15
DU-145 = system: DU-145
HL-60 = system: HL-60
PC-3 = system: PC-3
MOLT-4 = system: MOLT-4
A549 = system: A549
XF498 = system: XF498
SNB-78 = system: SNB-78
DMS-273 = system: DMS-273
HOP-18 = system: HOP-18
M19-MEL = system: M19-MEL
OVCAR-4 = system: OVCAR-4
UACC-62 = system: UACC-62
NCI/ADR-RES = system: NCI/ADR-RES
DMS-114 = system: DMS-114
MDA-MB-231 = system: MDA-MB-231
SF-539 = system: SF-539

CCc1cccc(CC)c1NC(=S)NC(=O)c1ccc(Br)cc1
GI50 (NCI-H226): 21.5 µM (inactive)
GI50 (K562): 40.7 µM (inactive)
GI50 (SR): 20.3 µM (inactive)
GI50 (HCT-15): 33.7 µM
GI50 (DU-145): 75.7 µM (inactive)
GI50 (HL-60): 17.5 µM (inactive)
GI50 (PC-3): 24.3 µM (inactive)
GI50 (MOLT-4): 18.8 µM (inactive)
GI50 (A549): 32.8 µM (inactive)
GI50 (XF498): 26.3 µM (inactive)
GI50 (SNB-78): 64.7 µM (inactive)
GI50 (DMS-273): 49 µM (inactive)
GI50 (HOP-18): 49.9 µM (inactive)
GI50 (M19-MEL): 35.2 µM (inactive)
GI50 (OVCAR-4): 7.48 µM (inactive)
GI50 (UACC-62): 19.7 µM (inactive)
GI50 (NCI/ADR-RES): 29.7 µM (inactive)
GI50 (DMS-114): 28.2 µM (inactive)
GI50 (MDA-MB-231): 29 µM (inactive)
GI50 (SF-539): 33.1 µM (inactive)
